In patent publication US20030059511A1, “Sweetener compositions and uses thereof” (AJINOMOTO CO., INC., priority 1999, published 2003):

How the values were obtained:
Assay type in all cases: in vivo, human
[1] = Magnification of sweetness intensity in the cola drink (sensory evaluation against sucrose cola drinks); conditions: for magnification of sweetness intensity in the cola drink: vs cola drink containing 10% sucrose
Excerpt: And the magnification of sweetness intensity in the cola drink can be also determined by the same method compared to the control solution of cola drink containing 10% sucrose.
The composition of cola drink is as follows.
As for the concentration of the references, the sucrose concentrations of previous (a) to (e) were used. In consequence, the magnification of sweetness intensity in the cola drink of derivative 1 was 22600 times, and that of derivative 2 was 4900 times.
And the magnification of sweetness intensity in the cola drink can be also determined by the same method compared to the reference solution of cola drink containing 10% sucrose.
The components of cola drink is as follows.
As for the concentration of the references, the sucrose concentrations of previous (a) to (e) were used. As the results, the magnification of sweetness intensity in the cola drink of derivative 1 was 22600 times, and that of derivative 2 was 4900 times.
And the magnification of sweetness in the cola drink can be also determined by the same method compared to the control solution of cola drink containing 10% sucrose.
As for the concentration of the references, the sucrose concentrations of previous (a) to (e) were used. As a result, the magnification of sweetness intensity in the cola drink of derivative 1 was 22600 times, and that of derivative 2 was 4900 times.

[2] = Equations for calculating sweetness intensity and values calculated from them; conditions: for concentration of the derivative of PSE 0.5%: from the cola drink equation of Example 17; for X when Y=6.3%: from the equation of the respective derivative
Excerpt: For example, when preparing a solution having a intensity of sweetness equivalent to that of 10% sucrose, wherein 80% of the 10% of intensity of sweetness is from the sweetener component A and the residual 20% is from the sweetener component B, the sweetness ratio is A:B=8:2. When the sweetening magnification relative to sucrose varies depending on the composition and the concentration of the sweetener component is varied even if it is a same sweetener component (in this case, an exponential curve can be prepared and used for calculation), the objective weight of the sweetener component can be calculated. For example, if the equation for converting sweetness intensity (the exponential curve) component A is Y=aX^b, and the equation for converting sweetness intensity (the exponential curve)of component B is Y=cX^d, the weight ratio of the components A and B in the ratio A:B=8:2, can be determined using the following calculation, where Y is a concentration equivalent to that of sucrose (PSE %), and X is the sweetener component concentration (g/100 ml):
Equations for calculating sweetness intensity in the cola drink (pH 2.8, 20° C.) are as follows, wherein Y denotes the concentration equivalent to that of sucrose (g/100 ml) and X denotes the concentration of the sweetener (g/100 ml), respectively.
With regard to Acesulfame K, the magnification of sweetness intensity was determined according to the following equation for calculating sweetness intensity.
[Y: concentration equivalent to that of sucrose (g/100ml); X: concentration of Acesulfame K (g/100 ml)]
By using the equation for calculating sweetness intensity in the cola drink (refer to Example 4) and the equation for calculating sweetness intensity of Aspartame (refer to the monthly Journal “Food Chemical” August, page 35, 1997), the necessary amounts of those were calculated. In case of Aspartame, the values at 20° C., pH2.8 were used.
The equation for calculating sweetness intensity of derivative 1 in the aqueous solution is as follows.
Where, the calculation of the sweetness was made by using the equation for calculating sweetness intensity of derivative 4 Y=58775X^1.04. When Y=6.3%, X=0.00015 g/100 ml, When Y=5.1%, X=0.00012 g/100 ml.
Examples for equations for calculating sweetness intensity in the cola drink (pH2.8, 20° C.) are as follows, and another equations can be prepared in the same manner, wherein Y denotes the concentration equivalent to that of sucrose (g/100 ml) and X denotes the concentration of the sweetener (g/100 ml), respectively.

[3] = Taste characteristics in a cola drink (9 items, similarity index vs cola drink containing 10% sucrose); conditions: non-carbonated cola drink, PSE 10%, vs cola drink with 10% sucrose; smaller = closer to sucrose; 8 panelists
Experimental: The following experiments were performed in the same way as that of Example 2. Instead of aqueous solution, the cola drink of each of derivatives 1 to 9 having a sweetness level equivalent to that of PSE 10% was prepared, and compared with the cola drink containing 10% sucrose. The evaluation method and so on were same as that of Example 2.
When carbon dioxide is blown in the cola drink, the carbonated cola drink is prepared, however, the taste of the cola drink can be compared more easily in that without carbon dioxide. Thus the sensory evaluation of non-carbonated cola drink was performed.
The composition of the cola drink employed was same as that of Example 1.
The similarity indexes were calculated as those of aqueous solutions. The smaller the similarity index becomes, the better the taste balances, and the closer the taste is to the taste characteristics (quality) of sucrose. The total taste becomes preferable. The similarity indexes of each derivatives are shown as follows. […]
The following experiments were conducted in the same way as that of Example 15. Instead of aqueous solution, the cola drink of each of derivatives 1 to 9 having a sweetness level equivalent to that of PSE 10% was prepared, and compared with the cola drink containing 10% sucrose. All of the evaluation method and so on were same as those of Example 15.
When carbon dioxide is blown in the cola drink, the carbonated cola drink is prepared, however, the taste of the cola drink can be compared more easily in that without carbon dioxide. Thus the non-carbonated cola drink was organoleptically evaluated.
The composition of the cola drink employed was same as that of Example 14.
The similarity indexes were calculated as those of aqueous solutions. The smaller the similarity index becomes, the better the taste balances, and the closer the taste is to the taste characteristics (quality)of sucrose. The total taste becomes preferable. The similarity indexes of each of the derivatives are shown as follows. […]

[4] = Equivalent concentration of bitter taste, sensory evaluation, mixed amino acids (Example 29); conditions: 2% mixed amino acids; addition: Derivative 2 10 ppm, Glycyrrhizin 250 ppm, Sucrose 50000 ppm; no addition 0.105
Experimental: With respect to the solution produced by adding derivative 1 (the product of the present invention), or adding nothing (no addition; the reference product) in the concentration shown in the following table 4 to the amino acid solution (2% solution of arginine by weight), the sensory evaluation was performed (using 10 panelists), and the equivalent concentration of bitter taste was determined. The results were shown in the table 4, wherein the equivalent concentration of bitter taste was shown in the concentration of aqueous solution of anhydrous caffeine which is a substance of bitter taste.
With respect to the solution produced by adding derivative 2, Glycyrrhizin or sucrose (the product of the present invention), or adding nothing (no addition; the-reference product) to 2% (by weight) solution of the mixed amino acids (leucine:valine:isoleucine=1:0.5:0.5 by weight), the sensory evaluation was performed (using 10 panelists), and the equivalent concentration of bitter taste was determined in the same way as that described in Example 28, and shown in the table 5.

Structure (SMILES)	Amount equivalent to PSE 10% [1]	Similarity index [3]	magnification of sweetness intensity in the cola drink [1]	concentration of the derivative of PSE 0.5% [2]	X when Y=6.3% [2]	further results
COC(=O)[C@H](Cc1ccccc1)NC(=O)[C@H](CC(=O)O)NCCC(C)(C)c1ccc(O)cc1 [Derivative 6, N-[N-[3-(4-hydroxyphenyl)-3-methylbutyl]-L-α-aspartyl]-L-phenylalanine 1-methyl ester]	7.1 mg/1000 ml	0.81	–	–	–	X when Y=9.6% ([2]; from the equation of derivative 6): 0.000685 g/100 ml
COC(=O)[C@H](Cc1ccccc1)NC(=O)[C@H](CC(=O)O)NCCCc1ccc(OC)c(O)c1 [Derivative 1, N-[N-[3-(3-hydroxy-4-methoxyphenyl)propyl] -L-α-aspartyl]-L-phenylalanine 1-methyl ester]	4.5 mg/1000 ml	0.78	22600 times	0.0000434 g/dL	–	magnification of the sweetness intensity at PSE 5% ([2]; calculated, block ice of Example 12): 25600 times; X, concentration of the sweetener when Y=1 ([2]; cola drink, pH 2.8, 20° C.): 0.000074 g/100 ml; X, concentration of the sweetener when Y=2 ([2]; cola drink, pH 2.8, 20° C.): 0.00013 g/100 ml; X, concentration of the sweetener when Y=5 ([2]; cola drink, pH 2.8, 20° C.): 0.00026 g/100 ml; X, concentration of the sweetener when Y=8 ([2]; cola drink, pH 2.8, 20° C.): 0.00037 g/100 ml; X, concentration of the sweetener when Y=9.5 ([2]; cola drink, pH 2.8, 20° C.): 0.000425 g/100 ml
COC(=O)[C@H](Cc1ccccc1)NC(=O)[C@H](CC(=O)O)NCCCc1ccc(O)c(C)c1 [Derivative 8, N-[N-[3-(3-methyl-4-hydroxyphenyl)propyl]-L-α-aspartyl]-L-phenylalanine 1-methyl ester]	6.3 mg/1000 ml	1.00	–	–	0.00036 g/100 ml	X when Y=8.9% ([2]; from the equation of derivative 8): 0.00055 g/100 ml
COC(=O)[C@H](Cc1ccccc1)NC(=O)[C@H](CC(=O)O)NCCCc1ccc(OC)cc1 [Derivative 2, N-[N-[3-(4-methoxyphenyl)propyl]-L-α-aspartyl]-L-phenylalanine 1-methyl ester]	20.4 mg/1000 ml	0.80	4900 times	0.0000597 g/dL	–	magnification of sweetness intensity at PSE 4% ([2]; calculated, sweetener for tabletop use): 6000 times; Equivalent concentration of bitter taste [4]: 0.051 g/100 g
COC(=O)[C@H](Cc1ccccc1)NC(=O)[C@H](CC(=O)O)NCCC(C)(C)c1ccc(O)c(C)c1 [Derivative 4, N-[N-[3-(3-methyl-4-hydroxyphenyl)-3-methylbutyl]-L-α-aspartyl]-L-phenylalanine 1-methyl ester]	3.4 mg/1000 ml	1.04	–	–	0.00015 g/100 ml	X when Y=5.1% ([2]; from the equation of derivative 4): 0.00012 g/100 ml
